Test results reported in PubChem BioAssay (NCI).
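Each compound was tested at five concentrations against cells in 96-well plates for 48 hours. The concentration for 50% growth inhibition is given as GI50. TGI is the concentration that stops growth completely.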

What was measured:
Experiment in all cases: NCI-60 cell line screen, 48 h
[1] = tested on: MOLT-4 leukemia
[2] = tested on: NCI-H460 lung
[3] = tested on: BT-549 breast
[4] = tested on: SNB-19 CNS
[5] = tested on: SF-539 CNS
[6] = tested on: MDA-MB-435
[7] = tested on: HCT-15 colon
[8] = tested on: HOP-92 NSCLC
[9] = tested on: UO-31 renal
[10] = tested on: SF-295 CNS
[11] = tested on: MCF7 breast
[12] = tested on: NCI-H226 lung
[13] = tested on: OVCAR-3 ovarian
[14] = tested on: U251 CNS
[15] = tested on: SF-268 CNS
[16] = tested on: IGROV1 ovarian
[17] = tested on: UACC-257 melanoma
[18] = tested on: CCRF-CEM leukemia
[19] = tested on: NCI-H522 lung
[20] = tested on: LOX IMVI melanoma
[21] = tested on: MDA-MB-231 breast
[22] = tested on: SK-MEL-28 melanoma
[23] = tested on: EKVX NSCLC
[24] = tested on: SK-OV-3 ovarian
[25] = tested on: OVCAR-8 ovarian
[26] = tested on: TK-10 renal
[27] = tested on: UACC-62 melanoma
[28] = tested on: OVCAR-5 ovarian
[29] = tested on: HCC-2998 colon
[30] = tested on: OVCAR-4 ovarian
[31] = tested on: HCT-116 colon
[32] = tested on: NCI/ADR-RES ovarian
[33] = tested on: HS 578T breast
[34] = tested on: T-47D breast
[35] = tested on: SW-620 colon
[36] = tested on: NCI-H23 lung
[37] = tested on: A549 NSCLC
[38] = tested on: ACHN renal
[39] = tested on: 786-0 renal
[40] = tested on: RPMI-8226 leukemia
[41] = tested on: HT29 colon
[42] = tested on: SNB-75 CNS
[43] = tested on: MALME-3M melanoma
[44] = tested on: SR leukemia
[45] = tested on: HOP-62 NSCLC
[46] = tested on: KM12 colon
[47] = tested on: COLO 205 colon
[48] = tested on: SK-MEL-5 melanoma
[49] = tested on: DU-145 prostate
[50] = tested on: RXF 393 renal
[51] = tested on: A498 renal
[52] = tested on: PC-3 prostate
[53] = tested on: M14 melanoma
[54] = tested on: SK-MEL-2 melanoma
[55] = tested on: K-562 leukemia
[56] = tested on: HL-60(TB) leukemia
[57] = tested on: CAKI-1 renal

`O=c1/c(=C\c2ccc(Br)cc2)sc2n1C(c1ccc(Br)cc1)C1=C(N=2)c2ccc3ccccc3c2OCC1` (centres undefined) was tested, and the GI50 [1] was > 100 µM, the TGI [1] was > 100 µM and the GI50 [2] was > 100 µM. The TGI [2] was > 100 µM, the GI50 [3] was > 100 µM and the TGI [3] was > 100 µM. For the same molecule, the GI50 [4] was > 100 µM, the TGI [4] was > 100 µM and the GI50 [5] was > 100 µM. The TGI [5] was > 100 µM, the GI50 [6] was > 100 µM and the TGI [6] was > 100 µM. For the same molecule, the GI50 [7] was > 100 µM, the TGI [7] was > 100 µM and the GI50 [8] was > 100 µM. For the same molecule, the TGI [8] was > 100 µM, the GI50 [9] was > 100 µM and the TGI [9] was > 100 µM. For the same molecule, the GI50 [10] was > 100 µM, the TGI [10] was > 100 µM and the GI50 [11] was > 100 µM. The TGI [11] was > 100 µM, the GI50 [12] was > 100 µM and the TGI [12] was > 100 µM. The GI50 [13] was > 100 µM, the TGI [13] was > 100 µM and the GI50 [14] was > 100 µM. The TGI [14] was > 100 µM, the GI50 [15] was > 100 µM and the TGI [15] was > 100 µM. The GI50 [16] was > 100 µM, the TGI [16] was > 100 µM and the GI50 [17] was > 100 µM. The TGI [17] was > 100 µM, the GI50 [18] was > 100 µM and the TGI [18] was > 100 µM. For the same molecule, the GI50 [19] was > 100 µM, the TGI [19] was > 100 µM and the GI50 [20] was > 100 µM. The TGI [20] was > 100 µM, the GI50 [21] was > 100 µM and the TGI [21] was > 100 µM. For the same molecule, the GI50 [22] was > 100 µM, the TGI [22] was > 100 µM and the GI50 [23] was > 100 µM. The TGI [23] was > 100 µM, the GI50 [24] was > 100 µM and the TGI [24] was > 100 µM. For the same molecule, the GI50 [25] was > 100 µM, the TGI [25] was > 100 µM and the GI50 [26] was > 100 µM. The TGI [26] was > 100 µM, the GI50 [27] was > 100 µM and the TGI [27] was > 100 µM. For the same molecule, the GI50 [28] was > 100 µM, the TGI [28] was > 100 µM and the GI50 [29] was > 100 µM. The TGI [29] was > 100 µM, the GI50 [30] was > 100 µM and the TGI [30] was > 100 µM. The GI50 [31] was > 100 µM, the TGI [31] was > 100 µM and the GI50 [32] was > 100 µM. The TGI [32] was > 100 µM, the GI50 [33] was > 100 µM and the TGI [33] was > 100 µM. For the same molecule, the GI50 [34] was > 100 µM, the TGI [34] was > 100 µM and the GI50 [35] was > 100 µM. For the same molecule, the TGI [35] was > 100 µM, the GI50 [36] was > 100 µM and the TGI [36] was > 100 µM. The GI50 [37] was > 100 µM, the TGI [37] was > 100 µM and the GI50 [38] was > 100 µM. For the same molecule, the TGI [38] was > 100 µM, the GI50 [39] was > 100 µM and the TGI [39] was > 100 µM. For the same molecule, the GI50 [40] was > 100 µM, the TGI [40] was > 100 µM and the GI50 [41] was > 100 µM. For the same molecule, the TGI [41] was > 100 µM, the GI50 [42] was > 100 µM and the TGI [42] was > 100 µM. The GI50 [43] was > 100 µM, the TGI [43] was > 100 µM and the GI50 [44] was 35.4 µM. The TGI [44] was > 100 µM, the GI50 [45] was > 100 µM and the TGI [45] was > 100 µM. The GI50 [46] was > 100 µM, the TGI [46] was > 100 µM and the GI50 [47] was > 100 µM. The TGI [47] was > 100 µM, the GI50 [48] was > 100 µM and the TGI [48] was > 100 µM. The GI50 [49] was > 100 µM, the TGI [49] was > 100 µM and the GI50 [50] was > 100 µM. The TGI [50] was > 100 µM, the GI50 [51] was > 100 µM and the TGI [51] was > 100 µM. The GI50 [52] was > 100 µM, the TGI [52] was > 100 µM and the GI50 [53] was > 100 µM. For the same molecule, the TGI [53] was > 100 µM, the GI50 [54] was > 100 µM and the TGI [54] was > 100 µM. For the same molecule, the GI50 [55] was > 100 µM, the TGI [55] was > 100 µM and the GI50 [56] was > 100 µM. For the same molecule, the TGI [56] was > 100 µM.

Molecule `COC(=O)[C@]12CC[C@@H](C)[C@H](C)[C@@H]1C1=CC[C@@H]3[C@@](C)(CC#N)C4=C(C[C@@]3(C)[C@]1(C)CC2)OC[C@]4(C)C=O` has a GI50 [1] of 2.1 µM, a TGI [1] of 6.89 µM and a GI50 [2] of 10.5 µM. It also gave a TGI [2] of 28 µM, a GI50 [3] of 4.08 µM and a TGI [3] of 32.9 µM. The GI50 [4] was 3.77 µM, the TGI [4] was > 100 µM and the GI50 [5] was 2.96 µM. The TGI [5] was 16.6 µM, the GI50 [6] was 4.39 µM and the TGI [6] was 44.1 µM. For the same molecule, the GI50 [7] was 3.1 µM, the TGI [7] was 23.2 µM and the GI50 [8] was 4.53 µM. The TGI [8] was 34.7 µM, the GI50 [9] was 3.07 µM and the TGI [9] was 39.5 µM. For the same molecule, the GI50 [10] was 13.2 µM, the TGI [10] was 40.6 µM and the GI50 [11] was 3.05 µM. The TGI [11] was 11.4 µM, the GI50 [57] was 6.32 µM and the TGI [57] was > 100 µM. It also gave a GI50 [12] of 8.51 µM, a TGI [12] of 43.7 µM and a GI50 [13] of 3.41 µM. The TGI [13] was 12.2 µM, the GI50 [14] was 3.61 µM and the TGI [14] was 19.2 µM. For the same molecule, the GI50 [15] was 4.38 µM, the TGI [15] was > 100 µM and the GI50 [16] was 5.28 µM. The TGI [16] was > 100 µM, the GI50 [17] was 3.73 µM and the TGI [17] was 18.3 µM. The GI50 [18] was 3.49 µM, the TGI [18] was 16.9 µM and the GI50 [19] was 14.7 µM. The TGI [19] was 46.9 µM, the GI50 [20] was 3.11 µM and the TGI [20] was 13.3 µM. It also gave a GI50 [21] of 3.34 µM, a TGI [21] of 18.5 µM and a GI50 [22] of 4.11 µM. It also gave a TGI [22] of 21.3 µM, a GI50 [23] of 4.32 µM and a TGI [23] of 48.7 µM. For the same molecule, the GI50 [24] was 4.92 µM, the TGI [24] was 62.6 µM and the GI50 [25] was 4.5 µM. The TGI [25] was > 100 µM, the GI50 [26] was 8.07 µM and the TGI [26] was > 100 µM. The GI50 [28] was 14.1 µM, the TGI [28] was 35.8 µM and the GI50 [29] was 5.81 µM. The TGI [29] was 33 µM, the GI50 [30] was 4.15 µM and the TGI [30] was > 100 µM. The GI50 [31] was 2.78 µM, the TGI [31] was 10.7 µM and the GI50 [32] was 4.26 µM. The TGI [32] was 38.9 µM, the GI50 [33] was 6 µM and the TGI [33] was 52.3 µM. The GI50 [34] was 2.77 µM, the TGI [34] was 16.1 µM and the GI50 [35] was 4.16 µM. The TGI [35] was 30.6 µM, the GI50 [36] was 3.88 µM and the TGI [36] was 40.7 µM. It also gave a GI50 [37] of 10.2 µM, a TGI [37] of 25 µM and a GI50 [38] of 6.42 µM. For the same molecule, the TGI [38] was > 100 µM, the GI50 [39] was 11.6 µM and the TGI [39] was 71.1 µM. The GI50 [40] was 3.05 µM, the TGI [40] was 13.6 µM and the GI50 [41] was 5.85 µM. For the same molecule, the TGI [41] was 41.5 µM, the GI50 [42] was 3.22 µM and the TGI [42] was > 100 µM. For the same molecule, the GI50 [43] was 4.76 µM, the TGI [43] was 27.8 µM and the GI50 [44] was 2.56 µM. It also gave a TGI [44] of 7.44 µM, a GI50 [45] of 5 µM and a TGI [45] of 36.6 µM. The GI50 [46] was 6.46 µM, the TGI [46] was 62.9 µM and the GI50 [47] was 14.4 µM. For the same molecule, the TGI [47] was 29.6 µM, the GI50 [48] was 3.3 µM and the TGI [48] was 11 µM. For the same molecule, the GI50 [49] was 4.78 µM, the TGI [49] was > 100 µM and the GI50 [50] was 12 µM. The TGI [50] was 36.1 µM, the GI50 [51] was 14.7 µM and the TGI [51] was 28.7 µM. It also gave a GI50 [52] of 3.31 µM, a TGI [52] of 73.7 µM and a GI50 [53] of 3.46 µM. For the same molecule, the TGI [53] was 19.9 µM, the GI50 [54] was 4.31 µM and the TGI [54] was 18 µM. For the same molecule, the GI50 [55] was 3.22 µM, the TGI [55] was > 100 µM and the GI50 [56] was 3.03 µM. For the same molecule, the TGI [56] was 6.77 µM.
